Test results taken from patent publication US20200129922A1, “METHOD OF REDUCING CONCENTRATION OF FLUORINE-CONTAINING COMPOUND IN SAMPLE” (Samsung Electronics Co., Ltd., priority 2018, published 2020).

Tests used:
[1] = at 30° C.; cited from earlier work
[2] = Confirmation of solubility of CF4 for phosphonium ionic liquid (headspace CF4 by GC-MS); type: physicochemical; settings: 5 ml ionic liquid in 60 ml serum bottle, 200 ppm CF4 in upper empty space, 24 hours shaking; control distilled water
Protocol: 5 ml of a phosphonium ionic liquid was put in a 60 ml glass serum bottle, and CF4 was supplied to the upper empty space at a concentration of 200 ppm based on the volume of the empty space. After air-tightening by closing a lid, the bottle was incubated for 24 hours under shaking. Then, the air in the upper empty space was collected, and a concentration of CF4 was measured using gas chromatography mass-spectrum (GC-MS). Distilled water of the same volume was used as a control group.
The CF4 removal rates in Tables 1 and 2 were calculated from the following Mathematical Equation 1:
CF4 removal rate=[(initial CF4 content−CF4 content after reaction)/initial CF4 content]×100 <Mathematical Equation 1>

Row | Compound | solubility of CF4 in water [1] | CF4 reduction rate (%) [2]
1 | FC(F)(F)F [CF4] | 17.1 µg/mL | –
2 | triethyl octyl phosphonium bis(trifluoromethylsulfonyl)imide [[P2228]^+ [NTf2]^−] | – | 13.9%
3 | trihexyl tetradecyl phosphonium bis(trifluoromethylsulfonyl)imide [[P66614]^+ [NTf2]^−] | – | 10.9%
